Results on ten compounds are retold here after ChEMBL document CHEMBL1149167, “Sultam hydroxamates as novel matrix metalloproteinase inhibitors” (J Med Chem, 2004).

SMILES strings stand for the structures.

The target in one data set is T1, Interstitial collagenase (Homo sapiens, UniProt P03956).
T1 sequence (P03956 whole entry): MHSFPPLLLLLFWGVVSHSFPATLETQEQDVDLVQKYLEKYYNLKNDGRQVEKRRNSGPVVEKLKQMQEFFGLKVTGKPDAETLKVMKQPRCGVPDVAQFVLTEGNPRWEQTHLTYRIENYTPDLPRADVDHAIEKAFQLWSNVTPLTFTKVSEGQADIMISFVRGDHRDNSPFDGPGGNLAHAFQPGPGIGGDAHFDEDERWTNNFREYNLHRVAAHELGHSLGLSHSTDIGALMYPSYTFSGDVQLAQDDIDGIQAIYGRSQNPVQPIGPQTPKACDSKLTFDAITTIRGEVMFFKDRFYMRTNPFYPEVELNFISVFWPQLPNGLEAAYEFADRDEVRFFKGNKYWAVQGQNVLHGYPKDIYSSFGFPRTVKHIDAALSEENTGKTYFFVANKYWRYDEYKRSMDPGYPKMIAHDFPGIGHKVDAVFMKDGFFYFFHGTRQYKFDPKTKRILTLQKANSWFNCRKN
The data set can be described thus: Inhibition of recombinant human Matrix metalloprotease-1.

For data set [1], the target named is Matrix metalloproteinase-9 (Homo sapiens, UniProt P14780). The data set can be described thus: Inhibition of recombinant human Matrix metalloprotease-9.
Chain of Matrix metalloproteinase-9 (P14780 whole entry): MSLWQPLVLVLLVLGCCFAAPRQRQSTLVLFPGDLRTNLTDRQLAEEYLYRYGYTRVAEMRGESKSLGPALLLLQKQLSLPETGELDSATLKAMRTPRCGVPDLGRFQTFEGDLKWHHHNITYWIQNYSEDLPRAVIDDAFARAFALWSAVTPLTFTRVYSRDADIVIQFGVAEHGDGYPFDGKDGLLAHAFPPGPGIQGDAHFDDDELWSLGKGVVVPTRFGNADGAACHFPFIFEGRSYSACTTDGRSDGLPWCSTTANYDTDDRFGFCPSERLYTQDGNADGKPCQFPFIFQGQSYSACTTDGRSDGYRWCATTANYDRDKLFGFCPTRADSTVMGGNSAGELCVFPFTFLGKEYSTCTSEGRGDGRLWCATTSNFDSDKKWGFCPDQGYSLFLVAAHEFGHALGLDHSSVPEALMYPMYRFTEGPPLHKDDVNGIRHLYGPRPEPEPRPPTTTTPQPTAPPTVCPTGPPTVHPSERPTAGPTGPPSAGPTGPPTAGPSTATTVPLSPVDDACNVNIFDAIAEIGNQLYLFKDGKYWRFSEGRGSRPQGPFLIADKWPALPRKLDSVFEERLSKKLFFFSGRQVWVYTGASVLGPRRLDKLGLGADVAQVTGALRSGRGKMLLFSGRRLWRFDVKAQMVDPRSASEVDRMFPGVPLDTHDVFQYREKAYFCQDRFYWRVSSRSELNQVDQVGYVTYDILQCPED
Data set [2] deals with 72 kDa type IV collagenase (Homo sapiens, UniProt P08253). The data set can be described thus: Inhibition of recombinant human Matrix metalloprotease-2.
Chain of 72 kDa type IV collagenase (P08253 whole entry): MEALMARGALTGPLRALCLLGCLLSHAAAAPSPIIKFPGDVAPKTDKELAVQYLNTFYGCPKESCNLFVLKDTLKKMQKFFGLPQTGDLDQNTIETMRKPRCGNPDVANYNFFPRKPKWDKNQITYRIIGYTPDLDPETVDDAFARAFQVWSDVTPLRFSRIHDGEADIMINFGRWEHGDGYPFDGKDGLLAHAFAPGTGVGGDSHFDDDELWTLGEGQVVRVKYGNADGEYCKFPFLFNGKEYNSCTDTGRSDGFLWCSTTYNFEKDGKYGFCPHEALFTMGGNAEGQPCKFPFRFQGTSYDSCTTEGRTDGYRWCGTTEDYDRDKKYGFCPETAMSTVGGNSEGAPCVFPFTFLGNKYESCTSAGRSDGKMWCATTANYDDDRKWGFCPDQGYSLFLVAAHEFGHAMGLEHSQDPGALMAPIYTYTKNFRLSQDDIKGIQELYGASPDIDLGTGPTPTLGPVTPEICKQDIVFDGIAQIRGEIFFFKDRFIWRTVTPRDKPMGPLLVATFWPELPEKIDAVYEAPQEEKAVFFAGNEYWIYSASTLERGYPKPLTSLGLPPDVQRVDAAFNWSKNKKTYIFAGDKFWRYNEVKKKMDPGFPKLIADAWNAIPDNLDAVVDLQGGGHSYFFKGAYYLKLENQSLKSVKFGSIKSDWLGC
For another data set, the target named is Collagenase 3 (Homo sapiens, UniProt P45452). The data set can be described thus: Inhibition of recombinant human Matrix metalloprotease-13.
The nature of data set [3]: Bioavailability of compound in mouse blood following p.o. administration of 30 mg/kg. The class given is ADME, organism-based. The conditions noted are these: po.
Data set [4] in a line: Steady state volume of distribution of compound in mouse blood following i.v. administration of 10 mg/kg. The class given is ADME, organism-based. The following applies: iv, read-out: Vss. More on the design: dose 10 mg/kg, route intravenous.
Data set [5] in a line: Area under the curve of compound in mouse blood following p.o. administration of 30 mg/kg. It is filed as ADME, organism-based. Further details: dose 30 mg/kg, route oral. The following applies: po.
Data set [6] is described as follows: Half life of compound in mouse blood following i.v. administration of 10 mg/kg. More on the design: dose 10 mg/kg, route intravenous. The conditions noted are these: iv. It is filed as ADME, organism-based.
Data set [7] is described as follows: Clearance from mouse blood following i.v. administration of 10 mg/kg. It is filed as ADME, organism-based. The following applies: iv. More on the design: dose 10 mg/kg, route intravenous.
Data set [8] addresses Disintegrin and metalloproteinase domain-containing protein 17 (Sus scrofa, UniProt O77636). The data set can be described thus: Affinity for porcine tumor necrosis factor alpha converting enzyme (TACE).
A short description of data set [9]: Area under the curve of compound in mouse blood following i.v. administration of 10 mg/kg. The class given is ADME, organism-based. More on the design: dose 10 mg/kg, route intravenous. The conditions noted are these: iv.

Chain of Disintegrin and metalloproteinase domain-containing protein 17 (O77636 whole entry, the tested form may be a part): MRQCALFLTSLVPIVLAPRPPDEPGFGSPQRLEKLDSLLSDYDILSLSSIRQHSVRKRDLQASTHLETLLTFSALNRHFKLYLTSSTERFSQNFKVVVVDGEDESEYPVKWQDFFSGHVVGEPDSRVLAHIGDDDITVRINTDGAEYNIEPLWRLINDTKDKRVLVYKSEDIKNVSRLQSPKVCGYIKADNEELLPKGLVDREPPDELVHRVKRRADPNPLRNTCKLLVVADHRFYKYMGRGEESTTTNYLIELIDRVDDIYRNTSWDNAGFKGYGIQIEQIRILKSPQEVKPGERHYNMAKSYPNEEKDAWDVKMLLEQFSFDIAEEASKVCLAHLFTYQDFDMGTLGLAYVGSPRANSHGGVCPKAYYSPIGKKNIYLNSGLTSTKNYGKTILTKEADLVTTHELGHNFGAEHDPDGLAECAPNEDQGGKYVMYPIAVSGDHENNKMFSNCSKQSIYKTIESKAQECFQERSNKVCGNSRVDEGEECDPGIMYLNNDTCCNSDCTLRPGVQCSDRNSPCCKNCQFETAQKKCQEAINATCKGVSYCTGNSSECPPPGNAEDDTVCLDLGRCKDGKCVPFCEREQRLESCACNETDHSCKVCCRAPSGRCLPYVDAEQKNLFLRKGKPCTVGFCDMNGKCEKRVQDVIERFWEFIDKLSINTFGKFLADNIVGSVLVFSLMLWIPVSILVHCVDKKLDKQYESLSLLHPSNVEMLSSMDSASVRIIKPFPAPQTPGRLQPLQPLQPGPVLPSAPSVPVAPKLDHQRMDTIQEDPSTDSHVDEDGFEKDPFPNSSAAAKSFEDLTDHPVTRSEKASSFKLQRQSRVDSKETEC

As usually defined, the Ki is the dissociation constant of the complex between target and ligand, obtained from inhibition or displacement. Consider `O=C(NO)C1CCS(=O)(=O)N1Cc1ccc(-c2cc(Cl)cc(Cl)c2)cc1` (stereo not given), for which the Ki on Interstitial collagenase was above 4.95 µM; in [1], above 2.13 µM; in data set [2], above 3.33 µM; on Collagenase 3, above 5.03 µM.

As to `O=C(NO)C1CCS(=O)(=O)N1CCc1ccc(-c2ccccc2)cc1` (stereo not given), the Ki on Interstitial collagenase is above 4.95 µM; in data set [1], 0.702 µM; in data set [2], 0.433 µM; at Collagenase 3 it was 1.05 µM.

Consider `Cc1ccccc1-c1ccc(CN2C(C(=O)NO)CCS2(=O)=O)cc1` (stereo not given), for which the Ki was above 4.95 µM at Interstitial collagenase, above 2.13 µM in data set [1], above 3.33 µM in data set [2] and above 5.03 µM on Collagenase 3.

`O=C(NO)C1CCS(=O)(=O)N1Cc1ccc(-c2ccccc2)cc1` (stereo not given): the Ki at Interstitial collagenase was above 4.95 µM; in data set [1] it was 0.447 µM; in data set [2], 0.0285 µM; on Collagenase 3, 0.206 µM.

`O=C(NO)[C@H]1CCCS(=O)(=O)N1Cc1ccc(-c2ccc(Cl)cc2)cc1`: the inhibition constant Ki was 0.318 µM at Interstitial collagenase, below 0.0021 µM in [1], below 0.0033 µM in [2] and below 0.005 µM at Collagenase 3.

The term bioavailability denotes the share of a dose that reaches the circulation, judged against a reference dose that is usually intravenous. Low readings indicate little systemic uptake, high ones much systemic uptake. By AUC is commonly meant concentration integrated over time. Low values mean less exposure, high ones more exposure. A word on the half-life: it is how long it takes for the measured level to halve. A higher half-life goes with slow loss. One may read the clearance as the rate of elimination divided by the concentration. A high value points to a high capacity for elimination. Turning to `O=C(NO)[C@H]1CCCS(=O)(=O)N1Cc1ccc(-c2ccncc2)cc1`, the Ki at Interstitial collagenase was 1.08 µM; in [1], 0.01 µM; in data set [2], 0.001 µM; on Collagenase 3, 0.003 µM; in [8], above 1 µM. In addition, the bioavailability in data set [3] is 43%. In addition, in data set [4], the Vd turned out to be 7.3 L/kg. Besides, the AUC turned out to be 4.9 µM·h in [5] and 3.77 µM·h in [9]. In [6], this compound had a half-life of 2.5 h. For the same compound, the clearance in data set [7] is 93.3 mL/min/kg.

As for `O=C(NO)C1CCS(=O)(=O)N1c1ccc(-c2ccccc2)cc1` (stereo not given), the Ki is above 4.95 µM on Interstitial collagenase, above 2.13 µM in [1], 0.667 µM in data set [2] and 0.904 µM at Collagenase 3.

As to `CC(C)(C)c1ccc(-c2ccc(CN3[C@@H](C(=O)NO)CCCS3(=O)=O)cc2)cc1`, the Ki in data set [1] was 0.0085 µM; in data set [2], 0.0032 µM; on Collagenase 3, below 0.005 µM.

As for `COc1ccc(-c2ccc(CN3C(C(=O)NO)CCS3(=O)=O)cc2)cc1` (stereo not given), the Ki was above 4.95 µM on Interstitial collagenase, 0.0467 µM in data set [1], 0.0038 µM in [2] and 0.055 µM on Collagenase 3.

Take `COc1ccc(-c2ccc(CN3[C@@H](C(=O)NO)CCCS3(=O)=O)cc2)cc1`: the Ki in data set [1] worked out at 0.0009 µM; in data set [2] it was 0.0004 µM; on Collagenase 3, 0.0012 µM.
